Measured values as given in patent publication US8293909B2, “Compounds for the treatment of hepatitis C” (Bristol-Myers Squibb Company, priority 2008, dated 2012).

Assays:
HCV replicon cells = test: HCV replicon assay (FRET or luciferase readout); format: cell-based; conditions: Hepatitis C virus
Text: FRET Assay Preparation. To perform the HCV FRET screening assay, 96-well cell culture plates were used. The FRET peptide (Anaspec, Inc.) (Taliani et al., Anal. Biochem. 1996, 240, 60-67) contains a fluorescence donor, EDANS, near one end of the peptide and an acceptor, DABCYL, near the other end. The fluorescence of the peptide is quenched by […] resonance energy transfer (RET) between the donor and the acceptor, but as the NS3 protease cleaves the peptide the products are released from RET quenching and the fluorescence of the donor becomes apparent. The assay reagent was made as follows: 5× cell Luciferase cell culture lysis reagent from Promega (#E153A) diluted to 1× with dH2O, NaCl added to 150 mM final, the FRET peptide diluted to 20 μM final from a 2 mM stock.
To prepare plates, HCV replicon cells, with or without a Renilla luciferase reporter gene, were trypsinized and placed into each well of a 96-well plate with titrated test compounds added in columns 3 through 12; columns 1 and 2 contained a control compound (HCV protease inhibitor), and the bottom row contained cells without compound. The plates were then placed in a CO2 incubator at 37° C.
Assays. Subsequent to addition of the test compounds described above (FRET Assay Preparation), at various times the plate was removed and Alamar blue solution (Trek Diagnostics, #00-100) was added per well as a measure of cellular toxicity. After reading in a Cytoflour 4000 instrument (PE Biosystems), plates were rinsed with PBS and then used for FRET assay by the addition of 30 ul of the FRET peptide assay reagent described above (FRET Assay Preparation) per well. The plate was then placed into the Cytoflour 4000 instrument which had been set to 340 excite/490 emission, automatic mode for 20 cycles and the plate read in a kinetic mode. Typically, the signal to noise using an endpoint analysis after the reads was at least three-fold. Alternatively, after Alamar blue reading, plates were rinsed with PBS, 50 ul of DMEM (high glucose) without phenol red was added and plates were then used for luciferase assay using the Promega Dual-Glo Luciferase Assay System.
Compound analysis was determined by quantification of the relative HCV replicon inhibition and the relative cytotoxicity values. To calculate cytoxicity values, the average Alamar Blue fluorescence signals from the control wells were set as 100% non-toxic. The individual signals in each of the compound test wells were then divided by the average control signal and multiplied by 100% to determine […]. To calculate the HCV replicon inhibition values, an average background value was obtained from the two wells containing the highest amount of HCV protease inhibitor at the end of the assay period. These numbers were similar to those obtained from naïve Huh-7 cells.
The background numbers were then subtracted from the average signal obtained from the control wells and this number was used as 100% activity. The individual signals in each of the compound test wells were then divided by the averaged control values after background subtraction and multiplied by 100% to determine percent activity. EC50 values for a protease inhibitor titration were calculated as the concentration which caused a 50% reduction in FRET or luciferase activity. The two numbers generated for the compound plate, percent cytoxicity and percent activity were used to determine compounds of interest for further analysis.

[1] = biological target: T1, HCV NS5B RdRp genotype 1b (Hepatitis C virus genotype 1b, UniProt Q9WMX2); test: HCV NS5B RdRp enzyme assay (standard / modified); format: biochemical; conditions: HCV NS5B genotype 1b
T1 construct: The protein was expressed with an 18 amino acid C-terminal truncation to enhance the solubility; made in house; host or cells: E. coli BL21(DE3), pET21a vector
Method: HCV NS5B RdRp cloning, expression, and purification. The cDNA encoding the NS5B protein of HCV, genotype 1b, was cloned into the pET21a expression vector. The protein was expressed with an 18 amino acid C-terminal truncation to enhance the solubility. The E. coli competent cell line BL21(DE3) was used for expression of the protein. Cultures were grown at 37° C. for ˜4 hours until the cultures reached an optical density of 2.0 at 600 nm. The cultures were cooled to 20° C. and induced with 1 mM IPTG. Fresh ampicillin was added to a final concentration of 50 μg/ml and the cells were grown overnight at 20° C.
Cell pellets (3 L) were lysed for purification to yield 15-24 mgs of purified NS5B. The lysis buffer consisted of 20 mM Tris-HCl, pH 7.4, 500 mM NaCl, 0.5% triton X-100, 1 mM DTT, 1 mM EDTA, 20% glycerol, 0.5 mg/ml lysozyme, 10 mM MgCl2, 15 ug/ml deoxyribonuclease I, and Complete™ protease inhibitor tablets (Roche). After addition of the lysis buffer, frozen cell pellets were resuspended using a tissue homogenizer. To reduce the viscosity of the sample, aliquots of the lysate were sonicated on ice using a microtip attached to a Branson sonicator. The sonicated lysate was centrifuged at 100,000×g for 1 hr at 4° C. and filtered through a 0.2 μm filter unit (Corning).
The protein was purified using three sequential chromatography steps: Heparin sepharose CL-6B, polyU sepharose 4B, and Hitrap SP sepharose (Pharmacia). The chromatography buffers were identical to the lysis buffer but contained no lysozyme, deoxyribonuclease I, MgCl2 or protease inhibitor and the NaCl concentration of the buffer was adjusted according to the requirements for charging the protein onto the column. Each column was eluted with a NaCl gradient which varied in length from 5-50 column volumes depending on the column type. After the final chromatography step, the resulting purity of the enzyme is >90% based on SDS-PAGE analysis. The enzyme was aliquoted and stored at −80° C.
Standard HCV NS5B RdRp enzyme assay. HCV RdRp genotype 1b assays were run in a final volume of 60 μl in 96 well plates (Costar 3912). The assay buffer is composed of 20 mM Hepes, pH 7.5, 2.5 mM KCl, 2.5 mM MgCl2, 1 mM DTT, 1.6 U RNAse inhibitor (Promega N2515), 0.1 mg/ml BSA (Promega R3961), and 2% glycerol. All compounds were serially diluted (3-fold) in DMSO and diluted further in water such that the final concentration of DMSO in the assay was 2%. HCV RdRp genotype 1b enzyme was used at a final concentration of 28 nM. A polyA template was used at 6 nM, and a biotinylated oligo-dT12 primer was used at 180 nM final concentration. Template was obtained commercially (Amersham 27-4110). Biotinylated primer was prepared by Sigma Genosys. 3H-UTP was used at 0.6 μCi (0.29 μM total UTP). Reactions were initiated by the addition of enzyme, incubated at 30° C. for 60 min, and stopped by adding 25 μl of 50 mM EDTA containing SPA beads (4 μg/μl, Amersham RPNQ 0007). Plates were read on a Packard Top Count NXT after >1 hr incubation at room temperature.
Modified HCV NS5B RdRp enzyme assay. A modified enzyme assay was performed essentially as described for the standard enzyme assay except for the following: The biotinylated oligo dT12 primer was precaptured on streptavidin-coated SPA beads by mixing primer and beads in assay buffer and incubating at room temperature for one hour. Unbound primer was removed after centrifugation. The primer-bound beads were resuspended in 20 mM Hepes buffer, pH 7.5 and used in the assay at final concentrations of 20 nM primer and 0.67 μg/μl beads. Order of addition in the assay: enzyme (14 nM) was added to diluted compound followed by the addition of a mixture of template (0.2 nM), 3H-UTP (0.6 μCi, 0.29 μM), and primer-bound beads, to initiate the reaction; concentrations given are final. Reactions were allowed to proceed for 4 hours at 30° C.
IC50 values for compounds were determined using seven different [I]. […]

T1 sequence (Q9WMX2 2420-2992): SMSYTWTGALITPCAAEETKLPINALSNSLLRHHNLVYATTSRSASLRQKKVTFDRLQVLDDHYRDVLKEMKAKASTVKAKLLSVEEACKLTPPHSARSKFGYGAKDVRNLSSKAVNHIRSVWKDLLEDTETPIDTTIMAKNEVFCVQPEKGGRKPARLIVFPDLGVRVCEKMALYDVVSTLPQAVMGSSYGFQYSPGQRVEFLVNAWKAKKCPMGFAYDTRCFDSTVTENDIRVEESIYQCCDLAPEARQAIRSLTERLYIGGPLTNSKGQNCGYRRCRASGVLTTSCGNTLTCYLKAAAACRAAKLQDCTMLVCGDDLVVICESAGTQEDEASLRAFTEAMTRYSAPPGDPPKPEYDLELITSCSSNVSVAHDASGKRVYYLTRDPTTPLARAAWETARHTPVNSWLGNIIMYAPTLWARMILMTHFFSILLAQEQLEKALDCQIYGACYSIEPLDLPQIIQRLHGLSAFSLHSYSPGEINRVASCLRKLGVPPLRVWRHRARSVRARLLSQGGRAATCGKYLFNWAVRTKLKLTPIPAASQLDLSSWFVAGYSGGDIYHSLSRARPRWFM

SMILES | EC50 (HCV replicon cells; Table 2) | IC50 ([1]; Table 2) | EC50 (HCV replicon cells; Table 1) | IC50 ([1]; Table 1)
CNC(=O)c1c(-c2ccc(F)cc2)nn2ccc(-c3cc(C(=O)NC4(c5ccccc5)CC4)ccc3C)cc12 [drawing 173] | 2.37 nM | 4.75 nM |  | 
CNC(=O)c1c(-c2ccc(F)cc2)nn2ccc(-c3cc(C(=O)NC4(c5ccc(F)cc5)CC4)ccc3C)cc12 |  |  | 2 to 250 nM | 2 to 250 nM
CNC(=O)c1c(-c2ccc(F)cc2)nc2ccc(-c3cccc(C(=O)O)c3)cn12 |  |  | > 10000 nM | > 10000 nM
CNC(=O)c1c(-c2ccc(F)cc2)nn2c(F)cc(-c3cc(C(=O)NC4(c5ccccc5)CC4)ccc3C)cc12 |  |  | 2 to 250 nM | 2 to 250 nM
CNC(=O)c1c(-c2ccccc2)nn2cc(I)ccc12 |  |  | > 10000 nM | > 10000 nM
CNC(=O)c1c2cc(-c3cc(C(=O)NC(C)(C)c4ccccc4)ccc3Cl)ccc2nn1-c1ccc(F)cc1 |  |  | 2 to 250 nM | 2 to 250 nM
CNC(=O)c1c(-c2ccc(F)cc2)nn2ccc(NC(=O)OC(C)(C)C)cc12 |  |  | > 10000 nM | > 10000 nM
CNC(=O)c1c(-c2ccc(F)cc2)oc2ncc(-c3cccc(C(=O)NC(C)(C)C)c3)cc12 |  |  | 2 to 250 nM | 2 to 250 nM
CNC(=O)c1c(-c2ccc(F)cc2)nn2ccc(NC(=O)c3cccc(OC)c3)cc12 |  |  | > 10000 nM | > 10000 nM
CNC(=O)c1c(-c2ccc(F)cc2)oc2ncc(-c3cccc(C(=O)NC(C)(C)c4ccccc4)c3)cc12 |  |  | 2 to 250 nM | 2 to 250 nM
CNC(=O)c1c(-c2ccc(F)cc2)oc2ccc(-c3cc(C(=O)NC4(c5ccccn5)CC4)ccc3C)nc12 |  |  | 2 to 250 nM | 2 to 250 nM
CNC(=O)c1c(-c2ccc(F)cc2)nc2ccc(-c3cccc(C(=O)NC(C)(C)C)c3)cn12 [drawing 77] |  |  | 250 to 1000 nM | 250 to 1000 nM
CNC(=O)c1c(-c2ccc(F)cc2)nn2ccc(-c3cc(C(=O)NC4(c5ccccn5)CC4)c(OC)cc3C)c(F)c12 [drawing 178] | 8.39 nM | 20 nM |  | 
CNC(=O)c1c(-c2ccc(F)cc2)sc2ccc(-c3cccc(C(=O)NC(C)(C)C)c3)cc12 [drawing 183] | 1860 nM | > 4170 nM |  | 
CNC(=O)c1c(-c2ccc(F)cc2)nc2ccc(C3CC3C(=O)NC3(c4ccccn4)CC3)cn12 (stereo not shown) [drawing 159] |  |  | > 10000 nM | > 10000 nM
CNC(=O)c1c(-c2ccc(F)cc2)nn2ccc(-c3cccc(C(=O)NC(C)(C)C)c3)cc12 |  |  | 2 to 250 nM | 250 to 1000 nM
CNC(=O)c1cccc(-c2ccc3c(C(=O)NC)c(-c4ccccc4)nn3c2)c1 |  |  | > 10000 nM | > 10000 nM
CNC(=O)c1c(-c2ccc(F)cc2)nn2ccc(-c3cccc(C(=O)NC(C)(C)c4ccccc4)c3)cc12 |  |  | 2 to 250 nM | 2 to 250 nM

SMILES | EC50 (HCV replicon cells; Table 2) | IC50 ([1]; Table 2) | EC50 (HCV replicon cells; Table 1) | IC50 ([1]; Table 1)
CNC(=O)c1c(-c2ccc(F)cc2)nn2ccc(-c3cc(C(=O)NC4(c5ccccc5)CCC4)ccc3C)cc12 |  |  | 2 to 250 nM | 2 to 250 nM
CNC(=O)c1c(-c2ccc(F)cc2)nn2ccc(-c3cc(C(=O)NC4(C5CC5)CC4)c(OC)cc3C)c(F)c12 |  |  | 2 to 250 nM | 2 to 250 nM
CNC(=O)c1c(-c2ccc(F)cc2)nn2ccc(-c3cc(C(=O)NC4(C)CC4)c(OC)cc3C)c(F)c12 |  |  | 2 to 250 nM | 2 to 250 nM
CNC(=O)c1c(-c2ccc(F)cc2)nc2ccc(-c3cccc(C(=O)NC(C)(C)c4ccccc4)c3)cn12 |  |  | 2 to 250 nM | 2 to 250 nM
CNC(=O)c1c(-c2ccc(F)cc2)sc2ccc(-c3cccc(C(=O)NC(C)(C)c4ccccc4)c3)cc12 |  |  | 250 to 1000 nM | 2 to 250 nM
CNC(=O)c1c(-c2ccc(F)cc2)nn2cc(-c3cccc(OC)c3)ccc12 |  |  | > 10000 nM | > 10000 nM
CNC(=O)c1c(-c2ccc(F)cc2)[nH]c2ccc(-c3cccc(C(=O)NC(C)(C)c4ccccc4)c3)cc12 [drawing 181] | 460 nM | 720 nM |  | 
CNC(=O)c1c(-c2ccc(F)cc2)nc2ccc(-c3cc(C(=O)NC(C)(C)c4ccccc4)ccc3OC)cn12 |  |  | 2 to 250 nM | 2 to 250 nM
CNC(=O)c1c(-c2ccccc2)nn2cc(N3CCOC3=O)ccc12 |  |  | > 10000 nM | > 10000 nM
CNC(=O)c1c2cc(-c3cccc(C(=O)NC(C)(C)c4ccccc4)c3)ccc2nn1-c1ccc(F)cc1 |  |  | 250 to 1000 nM | 2 to 250 nM
CNC(=O)c1c(-c2ccc(F)cc2)nn2ccc(NC(=O)c3ccc(OC)cc3)cc12 |  |  | > 10000 nM | > 10000 nM
CCc1ccccc1-c1ccc2c(C(=O)NC)c(-c3ccccc3)nn2c1 |  |  | > 10000 nM | > 10000 nM
CCN(c1cn2nc(-c3ccc(F)cc3)c(C(=O)NC)c2cc1-c1ccccc1)S(C)(=O)=O |  |  | 250 to 1000 nM | 2 to 250 nM
CNC(=O)c1c(-c2ccc(F)cc2)nc2cc(C)c(-c3cc(C(=O)NC(C)(C)c4ccccc4)ccc3C)cn12 |  |  | 2 to 250 nM | 2 to 250 nM
CNC(=O)c1c(-c2ccc(F)cc2)nn2ccc(-c3cc(C(=O)NC4(c5nc(C)no5)CC4)ccc3C)c(F)c12 |  |  | > 10000 nM | 1000 to 10000 nM
CNC(=O)c1c(-c2ccc(F)cc2)nc2ccc(-c3cccc(C(=O)NC(C)(C)C)c3)cn12 [drawing 180] | 400 nM | 640 nM |  | 
CNC(=O)c1c(-c2ccc(F)cc2)nn2cc(N(CCO)S(C)(=O)=O)c(-c3cccc(C(=O)NC4(c5ccccn5)CC4)c3)cc12 [drawing 86] |  |  | 1000 to 10000 nM | 2 to 250 nM
